According to patent US6114310A, “Efflux pump inhibitors” (priority 1998, dated 2000):

System: Pseudomonas aeruginosa PAM1001
Assay: microbe, parasite or virus in culture
Assay type: cell-based
Protocol: The activity of efflux pump inhibitors (EPI) in combination with fluoroquinolones, such as levofloxacin, is assessed by the checkerboard assay (Antimicrobial Combinations. In Antibiotics in Laboratory Medicine, Ed. Victor Lorian, M. D., Fourth edition, 1996, pp 333-338) using broth microdilution method performed as recommended by the NCCLS (National Committee for Clinical Laboratory Standards (NCCLS). 1997. Methods for Dilution of Antimicrobial Susceptibility Tests for Bacteria That Grow Aerobically--Fourth Edition; Approved Standard. NCCLS Document M7-A4, Vol 17 No.2). The test organism used is Pseudomonas aeruginosa PAM1001.
In this assay, multiple dilutions of two drugs, namely the EPI and levofloxacin, are being tested, alone and in combination, at concentrations equal to, above and below their respective minimal inhibitory concentrations (MICs).
Stock solutions are further diluted, according to the needs of a particular assay, in Mueller Hinton Broth (MHB). Stock solution can be stored at -80° C. Quinolones are solubilized according to the instructions of the manufacturers, at a concentration of 1 mg/ml. They are then further diluted in MHB. Stock solution can be stored at -80° C.
The checkerboard assay is performed in microtiter plates. Levofloxacin is diluted in the x axis, each column containing a single concentration of levofloxacin. The EPI is diluted in the y axis, each row containing an equal concentration of EPI. The result of these manipulations is that each well of the microtiter plate contains a unique combination of concentrations of the two agents. Each EPI are tested independently.
The assay is performed in MHB with a final bacterial inoculum of 5×10^5 CFU/ml (from an early-log phase culture). Microtiter plates are incubated during 20 h at 35° C. and are read using a microtiterplate reader (Molecular Devices) at 650 nm as well as visual observation using a microtiterplate reading mirror.

[1] = Table 1, EPI Conc. μg/ml (number not given; column between 10 and 40 μg/ml)
[2] = Table 2, EPI Conc. μg/ml (number not given; column between 10 and 40 μg/ml)
[3] = Table 3, EPI Conc. μg/ml (number not given; column between 10 and 40 μg/ml)
[4] = Table 4, EPI Conc. μg/ml (number not given; column between 10 and 40 μg/ml)

Substance | Levofloxacin MIC Against P. aeruginosa PAM1001 in Presence of Efflux Pump Inhibitor (EPI), Minimum Inhibitory Concentration (Table 1, EPI Conc. 0 μg/ml) [µg/mL] | Levofloxacin MIC Against P. aeruginosa PAM1001 in Presence of Efflux Pump Inhibitor (EPI), Minimum Inhibitory Concentration (Table 1, EPI Conc. 0.625 μg/ml) [µg/mL] | Levofloxacin MIC Against P. aeruginosa PAM1001 in Presence of Efflux Pump Inhibitor (EPI), Minimum Inhibitory Concentration (Table 1, EPI Conc. 5 μg/ml) [µg/mL] | Levofloxacin MIC Against P. aeruginosa PAM1001 in Presence of Efflux Pump Inhibitor (EPI), Minimum Inhibitory Concentration (Table 1, EPI Conc. 10 μg/ml) [µg/mL] | Levofloxacin MIC Against P. aeruginosa PAM1001 in Presence of Efflux Pump Inhibitor (EPI), Minimum Inhibitory Concentration (Table 1, EPI Conc. 40 μg/ml) [µg/mL] | Levofloxacin MIC Against P. aeruginosa PAM1001 in Presence of Efflux Pump Inhibitor (EPI), Minimum Inhibitory Concentration [1] [µg/mL] | Levofloxacin MIC Against P. aeruginosa PAM1001 in Presence of Efflux Pump Inhibitor (EPI), Minimum Inhibitory Concentration (Table 2, EPI Conc. 0 μg/ml) [µg/mL] | Levofloxacin MIC Against P. aeruginosa PAM1001 in Presence of Efflux Pump Inhibitor (EPI), Minimum Inhibitory Concentration (Table 2, EPI Conc. 0.625 μg/ml) [µg/mL] | Levofloxacin MIC Against P. aeruginosa PAM1001 in Presence of Efflux Pump Inhibitor (EPI), Minimum Inhibitory Concentration (Table 2, EPI Conc. 5 μg/ml) [µg/mL] | Levofloxacin MIC Against P. aeruginosa PAM1001 in Presence of Efflux Pump Inhibitor (EPI), Minimum Inhibitory Concentration (Table 2, EPI Conc. 10 μg/ml) [µg/mL] | Levofloxacin MIC Against P. aeruginosa PAM1001 in Presence of Efflux Pump Inhibitor (EPI), Minimum Inhibitory Concentration (Table 2, EPI Conc. 40 μg/ml) [µg/mL] | Levofloxacin MIC Against P. aeruginosa PAM1001 in Presence of Efflux Pump Inhibitor (EPI), Minimum Inhibitory Concentration (Table 2, EPI Conc. […]) [µg/mL] | Levofloxacin MIC Against P. aeruginosa PAM1001 in Presence of Efflux Pump Inhibitor (EPI), Minimum Inhibitory Concentration [2] [µg/mL] | Levofloxacin MIC Against P. aeruginosa PAM1001 in Presence of Efflux Pump Inhibitor (EPI), Minimum Inhibitory Concentration (Table 1, EPI Conc. […]) [µg/mL] | Levofloxacin MIC Against P. aeruginosa PAM1001 in Presence of Efflux Pump Inhibitor (EPI), Minimum Inhibitory Concentration (Table 3, EPI Conc. 0 μg/ml) [µg/mL] | Levofloxacin MIC Against P. aeruginosa PAM1001 in Presence of Efflux Pump Inhibitor (EPI), Minimum Inhibitory Concentration (Table 3, EPI Conc. 0.625 μg/ml) [µg/mL] | Levofloxacin MIC Against P. aeruginosa PAM1001 in Presence of Efflux Pump Inhibitor (EPI), Minimum Inhibitory Concentration (Table 3, EPI Conc. 5 μg/ml) [µg/mL] | Levofloxacin MIC Against P. aeruginosa PAM1001 in Presence of Efflux Pump Inhibitor (EPI), Minimum Inhibitory Concentration (Table 3, EPI Conc. 10 μg/ml) [µg/mL] | Levofloxacin MIC Against P. aeruginosa PAM1001 in Presence of Efflux Pump Inhibitor (EPI), Minimum Inhibitory Concentration (Table 3, EPI Conc. 40 μg/ml) [µg/mL] | Levofloxacin MIC Against P. aeruginosa PAM1001 in Presence of Efflux Pump Inhibitor (EPI), Minimum Inhibitory Concentration [3] [µg/mL] | other results
β-(2-Thiaizolyl)alanyl-Nα -methylornithine 2-naphthylamide [Compound 30 (Table 1)] | 4 | 4 | 1 | 0.25 | 0.25 | 0.25 | 4 | 4 | 2 | 1 | 0.25 | 4 | 0.50 | – | – | – | – | – | – | – | –
D-Lysyl-β-N-(4-Methylphenethyl)alanine Quinoline-2-amide TFA [Example 22] | 4 | 4 | 2 | 1 | 0.125 | 0.125 | 4 | 4 | 1 | 0.25 | 0.03 | 4 | 0.06 | 4 | 4 | 4 | 1 | 0.125 | 0.06 | 0.03 | Levofloxacin MIC Against P. aeruginosa PAM1001 in Presence of Efflux Pump Inhibitor (EPI), Minimum Inhibitory Concentration (Table 4, EPI Conc. 0 μg/ml): 4 µg/mL; Levofloxacin MIC Against P. aeruginosa PAM1001 in Presence of Efflux Pump Inhibitor (EPI), Minimum Inhibitory Concentration (Table 4, EPI Conc. 0.625 μg/ml): 4 µg/mL; Levofloxacin MIC Against P. aeruginosa PAM1001 in Presence of Efflux Pump Inhibitor (EPI), Minimum Inhibitory Concentration (Table 4, EPI Conc. 5 μg/ml): 4 µg/mL; Levofloxacin MIC Against P. aeruginosa PAM1001 in Presence of Efflux Pump Inhibitor (EPI), Minimum Inhibitory Concentration (Table 4, EPI Conc. 10 μg/ml): 2 µg/mL; Levofloxacin MIC Against P. aeruginosa PAM1001 in Presence of Efflux Pump Inhibitor (EPI), Minimum Inhibitory Concentration (Table 4, EPI Conc. 40 μg/ml): 0.50 µg/mL; Levofloxacin MIC Against P. aeruginosa PAM1001 in Presence of Efflux Pump Inhibitor (EPI), Minimum Inhibitory Concentration (Table 4, EPI Conc. […]): 4 µg/mL; Levofloxacin MIC Against P. aeruginosa PAM1001 in Presence of Efflux Pump Inhibitor (EPI), Minimum Inhibitory Concentration [4]: 1 µg/mL
D-Lysyl-β-N-(Cyclohexylmethyl)alanine Quinoline-3-amide Trifluoroacetate [Example 18] | 4 | 4 | 4 | 2 | 0.25 | 0.50 | 4 | 4 | 4 | 2 | 0.125 | 4 | 0.125 | 4 | 4 | 4 | 1 | 0.50 | 0.03 | 0.03 | Levofloxacin MIC Against P. aeruginosa PAM1001 in Presence of Efflux Pump Inhibitor (EPI), Minimum Inhibitory Concentration (Table 4, EPI Conc. 0 μg/ml): 4 µg/mL; Levofloxacin MIC Against P. aeruginosa PAM1001 in Presence of Efflux Pump Inhibitor (EPI), Minimum Inhibitory Concentration (Table 4, EPI Conc. 0.625 μg/ml): 4 µg/mL; Levofloxacin MIC Against P. aeruginosa PAM1001 in Presence of Efflux Pump Inhibitor (EPI), Minimum Inhibitory Concentration (Table 4, EPI Conc. 5 μg/ml): 2 µg/mL; Levofloxacin MIC Against P. aeruginosa PAM1001 in Presence of Efflux Pump Inhibitor (EPI), Minimum Inhibitory Concentration (Table 4, EPI Conc. 10 μg/ml): 0.50 µg/mL; Levofloxacin MIC Against P. aeruginosa PAM1001 in Presence of Efflux Pump Inhibitor (EPI), Minimum Inhibitory Concentration (Table 4, EPI Conc. 40 μg/ml): 0.25 µg/mL; Levofloxacin MIC Against P. aeruginosa PAM1001 in Presence of Efflux Pump Inhibitor (EPI), Minimum Inhibitory Concentration (Table 4, EPI Conc. […]): 4 µg/mL; Levofloxacin MIC Against P. aeruginosa PAM1001 in Presence of Efflux Pump Inhibitor (EPI), Minimum Inhibitory Concentration [4]: 0.125 µg/mL
